These results are taken from paper PMC8700709, “Cannabidiol Inhibits Tau Aggregation In Vitro” (Cells, 2021).

The experiment deals with T1, tau protein 1N/4R isoform (Homo sapiens, UniProt P10636).
T1 construct: gene MAPT; recombinant human His-tagged tau 1N/4R isoform, expressed in E. coli BL21(DE3)
Briefly: intrinsic Tyr fluorescence quenching titration (Stern-Volmer/Hill; Kb at […] °C), Job's plot […]; supported by ThT aggregation assay, CD and AFM. Format: binding. The following applies: read-out: Kb×10^4(M^-1) (converted).

T1 sequence (P10636 1-412 isoform P10636-7): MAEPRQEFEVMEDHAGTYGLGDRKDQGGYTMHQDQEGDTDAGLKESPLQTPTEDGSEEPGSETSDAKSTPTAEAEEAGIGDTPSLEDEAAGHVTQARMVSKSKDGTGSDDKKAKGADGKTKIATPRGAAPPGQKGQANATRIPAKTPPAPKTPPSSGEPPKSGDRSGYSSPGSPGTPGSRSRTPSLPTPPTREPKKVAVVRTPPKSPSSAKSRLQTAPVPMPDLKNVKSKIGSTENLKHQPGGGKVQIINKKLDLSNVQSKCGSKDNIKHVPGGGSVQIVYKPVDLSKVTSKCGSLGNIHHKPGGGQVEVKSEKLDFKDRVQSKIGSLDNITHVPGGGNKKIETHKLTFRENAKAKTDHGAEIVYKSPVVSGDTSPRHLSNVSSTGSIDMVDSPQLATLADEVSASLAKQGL

Consider `C=C(C)[C@@H]1CCC(C)=C[C@H]1c1c(O)cc(CCCCC)cc1O` [Cannabidiol], for which the Kd is 23.8 µM.
